# Experimental data from ChEMBL document CHEMBL1201862, “PubChem BioAssay data set” (2004).
# The source made the active and inactive calls.
# How the values were obtained:
# HEK293 [1] = experiment: SAR Analysis of small molecule inhibitors of T-cell specific antigen receptor-induced NF-kB activation in a HEK-293T cell line using a luminescence assay - Set 2. [Related pubchem assays (depositor defined):AID435003, AID435012, AID489026]; assay type: functional, cell-based; details: Homo sapiens
# Jurkat = experiment: SAR Analysis of small molecule inhibitors of T-cell specific antigen receptor-induced NF-kB activation in a Jurkat cell line using a luminescence assay - Set 2. [Related pubchem assays (depositor defined):AID435003, AID435012, AID465]; assay type: functional, cell-based; details: Homo sapiens
# HEK293 [2] = experiment: HEK293T cell viability loss, resazurin readout – resazurin fluorescence, cytotoxicity control for NF-kB activator project, SAR follow-up (AID 493251); assay type: functional, cell-based; details: Homo sapiens
# Hexokinase HKDC1 = biological target: T1, Hexokinase HKDC1 (Homo sapiens, UniProt Q2TB90); experiment: SAR analysis of small molecule inhibitors of hexokinase domain containing I (HKDC1). [Related pubchem assays (depositor defined):AID493160, AID493190]; assay type: functional
# T1 sequence (Q2TB90 whole entry): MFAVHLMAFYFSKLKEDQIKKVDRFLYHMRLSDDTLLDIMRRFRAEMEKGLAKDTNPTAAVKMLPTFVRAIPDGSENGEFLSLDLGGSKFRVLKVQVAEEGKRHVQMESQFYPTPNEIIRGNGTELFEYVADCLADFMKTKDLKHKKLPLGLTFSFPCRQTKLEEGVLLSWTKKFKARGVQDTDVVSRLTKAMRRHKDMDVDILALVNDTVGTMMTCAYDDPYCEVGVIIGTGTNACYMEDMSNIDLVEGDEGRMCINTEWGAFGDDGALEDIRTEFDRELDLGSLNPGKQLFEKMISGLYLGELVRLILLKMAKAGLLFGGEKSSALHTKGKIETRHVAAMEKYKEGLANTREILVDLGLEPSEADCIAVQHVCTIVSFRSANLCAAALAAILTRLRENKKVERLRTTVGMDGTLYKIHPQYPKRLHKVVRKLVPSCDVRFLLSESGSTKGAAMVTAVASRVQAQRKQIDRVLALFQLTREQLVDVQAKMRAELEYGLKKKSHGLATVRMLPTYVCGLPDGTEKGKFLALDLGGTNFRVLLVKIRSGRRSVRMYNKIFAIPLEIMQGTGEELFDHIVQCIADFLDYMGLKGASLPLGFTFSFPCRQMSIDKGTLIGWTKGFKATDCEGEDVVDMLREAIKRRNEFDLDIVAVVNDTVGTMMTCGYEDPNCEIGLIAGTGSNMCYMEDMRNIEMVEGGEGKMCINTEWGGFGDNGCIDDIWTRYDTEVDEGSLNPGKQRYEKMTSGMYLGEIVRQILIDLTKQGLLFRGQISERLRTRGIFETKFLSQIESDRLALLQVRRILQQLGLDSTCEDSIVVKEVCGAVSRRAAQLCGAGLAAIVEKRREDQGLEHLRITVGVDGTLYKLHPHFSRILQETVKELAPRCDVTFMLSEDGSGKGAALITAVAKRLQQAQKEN
# Hexokinase-1 = Hexokinase-1 (Homo sapiens, UniProt P19367); experiment: SAR analysis of small molecule inhibitors of hexokinase domain containing I (HKDC1) in the hexokinase 1 selectivity assay. [Related pubchem assays (depositor defined):AID493160, AID493190]; assay type: functional
# BJ [3] = experiment: BJ-TERT fibroblast viability loss – cell-based, RAS-independent, luminescence, dose response (AID 1933); assay type: functional; details: Homo sapiens
# [4] = DRD fibroblast viability loss – cell-based, non-viral oncogenic, luminescence, dose response (AID 1934); assay type: functional; details: Homo sapiens
# [5] = non-specific 3'UTR reporter inhibition in Clone20-Shn3RL – cell-based, Renilla luciferase, cherry-picked, counter-screen for Shn3 inhibitor project, dose response (AID 624133); assay type: functional
# [6] = reduction of Shn3 3'UTR-driven luciferase in osteoblasts – cell-based, Clone20 osteoblasts, firefly luciferase, cherry-picked, dose response (AID 624132); assay type: functional;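 note: firefly luciferase luminescence from reporter carrying the Shn3 3'UTR in osteoblasts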
# BJ [7] = experiment: cells; assay type: functional, cell-based; details: Homo sapiens
# [8] = tested on: Streptococcus sp. 'group A'; experiment: Streptococcus pyogenes SK(-)GAS viability under kanamycin – luminescence, BacTiterGlo, confirmation, counter-screen for streptokinase expression inhibitor project, dose response (AID 1900); assay type: functional, organism-based
# Cytochrome P450 2C19 = Cytochrome P450 2C19 (Homo sapiens, UniProt P33261); experiment: Cytochrome panel assay with activity outcomes. Panel member name: p450-cyp2c19 Compounds with AC50 equal or less than 10 uM are considered active; assay type: functional; details: read-out: AC50
# Streptococcus = experiment: GAS UMAA2166 growth inhibition – luminescence, BacTiterGlo, counter-screen for streptokinase expression inhibitor project, dose response (AID 1915); assay type: functional, organism-based;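 note: potency for reduction of bacterial viability or growth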
# INS1 = experiment: INS-1E survival protection against cytokine death – cell-based, luminescence, retest, dose response (AID 449756); assay type: functional; details: Rattus norvegicus;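 note: cell death triggered by IL-1 beta plus TNF-alpha plus IFN-gamma mixture; protective hits raise ATP signal compared with cytokine alone wells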
# cells [9] = assay type: functional, cell-based
# cells [10] = assay type: functional, cell-based; remark: listed apart in the source
# [11] = biological target: Serine/threonine-protein phosphatase (Candida dubliniensis (strain CD36 / CBS 7987 / NCPF 3949 / NRRLY-17841) (Yeast), UniProt B9W6M3); experiment: blockers of CaCl2-induced CDRE-lacZ signaling – S. cerevisiae, luminescence, secondary, dose response (AID 2388); assay type: functional, cell-based;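 note: yeast reporter cells carrying a calcineurin-responsive lacZ construct stimulated with calcium chloride; luminescent beta-galactosidase reporter signal in whole cells rather than isolated phosphatase activity; potency for inhibition where a drop in reporter signal means calcineurin blockade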
# [12] = biological target: ATP-dependent molecular chaperone HSP82 (Candida albicans (strain WO-1) (Yeast), UniProt C4YTQ8); experiment: steroid-induced GRE reporter decrease in yeast – S. cerevisiae, luminescence, Hsp90 inhibitor project, dose response (AID 2400); assay type: functional, cell-based;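 note: beta-galactosidase luminescence from glucocorticoid response element reporter as proxy for Hsp90 function; inhibitor potency where signal loss means Hsp90 inhibition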
# Vero [13] = experiment: cells; assay type: functional, cell-based; details: Chlorocebus sabaeus
# [14] = fluconazole-exposed Candida albicans growth modulators – fluorescence, retest, confirmation (AID 2467); assay type: functional, cell-based
# Cytochrome P450 1A2 = biological target: T2, Cytochrome P450 1A2 (Homo sapiens, UniProt P05177);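 note: PubChem cytochrome P450 panel assay, CYP1A2 panel member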
# T2 sequence (P05177 whole entry): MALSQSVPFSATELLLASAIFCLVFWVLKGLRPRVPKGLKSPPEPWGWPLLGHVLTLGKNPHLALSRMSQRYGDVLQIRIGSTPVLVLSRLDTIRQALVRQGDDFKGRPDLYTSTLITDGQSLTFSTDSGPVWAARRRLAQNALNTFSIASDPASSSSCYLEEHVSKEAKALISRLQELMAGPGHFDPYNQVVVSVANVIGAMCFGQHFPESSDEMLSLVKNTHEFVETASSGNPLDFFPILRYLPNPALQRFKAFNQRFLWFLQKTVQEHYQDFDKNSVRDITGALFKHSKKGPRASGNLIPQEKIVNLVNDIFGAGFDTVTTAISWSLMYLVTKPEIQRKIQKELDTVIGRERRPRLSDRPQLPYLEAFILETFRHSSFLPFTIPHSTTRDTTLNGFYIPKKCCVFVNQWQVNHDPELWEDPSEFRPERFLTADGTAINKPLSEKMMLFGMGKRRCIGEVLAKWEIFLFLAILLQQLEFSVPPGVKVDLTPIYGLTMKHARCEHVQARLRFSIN
# [15] = biological target: Heat shock protein HSP 90-alpha (Homo sapiens, UniProt P07900); assay type: functional, organism-based
# BJ [16] = experiment: BJ-TERT-LT-ST fibroblast viability loss – cell-based, RAS-independent, luminescence, dose response (AID 1935); assay type: functional; details: Homo sapiens;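 note: BJ fibroblasts immortalized with TERT plus LT and ST oncogenes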
# Cytochrome P450 2D6 = Cytochrome P450 2D6 (Homo sapiens, UniProt P10635);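 note: CYP2D6 member of a cytochrome P450 panel assay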
# Vero [17] = experiment: cells; assay type: functional; details: Chlorocebus sabaeus
# [18] = NIH-3T3 fibroblast cytotoxicity, dose response, cytotoxicity control, cell-based, fluorescence, Alamar Blue, secondary assay (AID 2327); assay type: functional;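 note: NIH-3T3 mouse fibroblasts cultured with fluconazole at 8 µg/mL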
# [19] = biological target: T3, Short transient receptor potential channel 4 (Mus musculus, UniProt Q9QUQ5); experiment: mouse TRPC4 block via Gq-coupled stimulation – cell-based, acetylcholine stimulus, HEK293 TRPC4, Fluo-4, SAR follow-up (AID 492996); assay type: functional
# T3 sequence (Q9QUQ5 whole entry): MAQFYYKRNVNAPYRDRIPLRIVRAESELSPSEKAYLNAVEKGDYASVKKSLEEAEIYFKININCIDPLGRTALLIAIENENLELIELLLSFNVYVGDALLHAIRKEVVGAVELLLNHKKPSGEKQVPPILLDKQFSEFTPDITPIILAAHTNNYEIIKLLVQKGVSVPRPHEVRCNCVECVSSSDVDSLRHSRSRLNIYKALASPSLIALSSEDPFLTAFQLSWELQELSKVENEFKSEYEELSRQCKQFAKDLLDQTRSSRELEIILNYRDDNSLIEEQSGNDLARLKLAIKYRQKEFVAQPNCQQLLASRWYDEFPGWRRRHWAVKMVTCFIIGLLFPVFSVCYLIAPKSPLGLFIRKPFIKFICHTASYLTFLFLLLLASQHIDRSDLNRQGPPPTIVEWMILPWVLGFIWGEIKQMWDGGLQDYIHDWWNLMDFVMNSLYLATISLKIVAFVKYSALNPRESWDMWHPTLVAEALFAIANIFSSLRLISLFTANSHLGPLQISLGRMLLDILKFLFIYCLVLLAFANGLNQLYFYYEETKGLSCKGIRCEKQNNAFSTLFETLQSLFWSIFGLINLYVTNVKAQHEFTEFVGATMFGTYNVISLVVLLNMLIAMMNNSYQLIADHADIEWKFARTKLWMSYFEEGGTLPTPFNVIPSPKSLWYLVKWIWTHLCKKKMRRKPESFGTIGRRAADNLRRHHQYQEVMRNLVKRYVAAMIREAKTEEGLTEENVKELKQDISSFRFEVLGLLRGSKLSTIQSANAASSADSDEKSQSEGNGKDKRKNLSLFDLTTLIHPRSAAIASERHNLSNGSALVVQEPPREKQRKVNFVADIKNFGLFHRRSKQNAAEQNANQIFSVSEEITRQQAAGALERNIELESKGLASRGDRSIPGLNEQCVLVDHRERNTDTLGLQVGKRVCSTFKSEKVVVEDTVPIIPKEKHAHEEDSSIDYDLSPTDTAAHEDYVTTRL
# [20] = biological target: T3, Short transient receptor potential channel 4; experiment: block of DAMGO-driven TRPC4 calcium entry – cell-based, HEK293 TRPC4/mu-opioid, Fluo-4 calcium, dose response (AID 434942); assay type: functional;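 note: potency of inhibitors blocking the TRPC4 calcium response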
# [21] = biological target: T3, Short transient receptor potential channel 4; experiment: SAR Analysis for the identification of selective inhibits of the transient receptor potential cation channel C4 (TRPC4): Automated Electrophysiology. [Related pubchem assays (depositor defined):AID2256]; assay type: functional
# [22] = biological target: T3, Short transient receptor potential channel 4; experiment: potency of mouse TRPC4 calcium flux blockers – cell-based, HEK293 TRPC4/mu-opioid, DAMGO stimulus, Fluo-4, dose response (AID 492994); assay type: functional
# [23] = biological target: T3, Short transient receptor potential channel 4; experiment: SAR Analysis for the identification of selective inhibitors of the transient receptor potential cation channel C4 (TRPC4): TRPC4 Serotonin Receptor CRC MPD assay. [Related pubchem assays (depositor defined):AID2247, AID2256]; assay type: functional
# Sequence of Cytochrome P450 2C19 (P33261 whole entry): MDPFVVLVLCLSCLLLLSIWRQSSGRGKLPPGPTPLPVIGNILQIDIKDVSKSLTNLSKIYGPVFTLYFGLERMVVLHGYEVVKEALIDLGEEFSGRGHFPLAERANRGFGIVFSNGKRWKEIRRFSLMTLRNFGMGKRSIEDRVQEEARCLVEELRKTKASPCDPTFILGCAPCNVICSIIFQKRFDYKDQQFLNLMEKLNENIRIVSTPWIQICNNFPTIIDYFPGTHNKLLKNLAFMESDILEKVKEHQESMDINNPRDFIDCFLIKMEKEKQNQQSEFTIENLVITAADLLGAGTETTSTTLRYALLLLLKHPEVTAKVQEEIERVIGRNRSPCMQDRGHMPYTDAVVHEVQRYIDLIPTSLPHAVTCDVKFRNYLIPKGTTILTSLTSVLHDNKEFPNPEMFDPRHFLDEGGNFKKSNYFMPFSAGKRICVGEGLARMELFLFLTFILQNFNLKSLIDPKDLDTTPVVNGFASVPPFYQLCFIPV
# Sequence of Hexokinase-1 (P19367 whole entry, the tested form may be a part): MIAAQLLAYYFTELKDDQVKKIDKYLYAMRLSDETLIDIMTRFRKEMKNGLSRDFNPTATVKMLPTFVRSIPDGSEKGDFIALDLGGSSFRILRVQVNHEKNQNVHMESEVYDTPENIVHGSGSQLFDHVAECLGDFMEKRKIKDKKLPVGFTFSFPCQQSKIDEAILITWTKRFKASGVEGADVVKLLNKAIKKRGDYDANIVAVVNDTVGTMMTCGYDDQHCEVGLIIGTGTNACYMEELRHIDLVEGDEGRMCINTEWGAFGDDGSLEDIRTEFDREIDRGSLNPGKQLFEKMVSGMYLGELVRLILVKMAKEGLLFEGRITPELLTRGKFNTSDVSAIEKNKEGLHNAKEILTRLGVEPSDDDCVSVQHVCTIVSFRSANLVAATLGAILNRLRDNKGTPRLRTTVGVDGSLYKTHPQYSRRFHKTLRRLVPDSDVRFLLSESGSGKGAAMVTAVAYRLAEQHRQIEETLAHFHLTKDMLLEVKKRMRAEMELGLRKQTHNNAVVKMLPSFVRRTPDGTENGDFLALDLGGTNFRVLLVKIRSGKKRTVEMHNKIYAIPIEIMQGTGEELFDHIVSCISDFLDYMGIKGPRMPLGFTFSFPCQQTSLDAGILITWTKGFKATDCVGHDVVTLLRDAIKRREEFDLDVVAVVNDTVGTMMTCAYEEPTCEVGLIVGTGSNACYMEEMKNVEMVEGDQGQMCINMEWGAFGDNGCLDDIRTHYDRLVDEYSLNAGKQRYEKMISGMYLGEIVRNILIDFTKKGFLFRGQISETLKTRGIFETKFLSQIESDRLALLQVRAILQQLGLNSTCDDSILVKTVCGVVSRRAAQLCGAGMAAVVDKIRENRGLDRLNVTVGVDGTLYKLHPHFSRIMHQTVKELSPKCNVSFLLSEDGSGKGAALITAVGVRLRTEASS
# Sequence of ATP-dependent molecular chaperone HSP82 (C4YTQ8 whole entry): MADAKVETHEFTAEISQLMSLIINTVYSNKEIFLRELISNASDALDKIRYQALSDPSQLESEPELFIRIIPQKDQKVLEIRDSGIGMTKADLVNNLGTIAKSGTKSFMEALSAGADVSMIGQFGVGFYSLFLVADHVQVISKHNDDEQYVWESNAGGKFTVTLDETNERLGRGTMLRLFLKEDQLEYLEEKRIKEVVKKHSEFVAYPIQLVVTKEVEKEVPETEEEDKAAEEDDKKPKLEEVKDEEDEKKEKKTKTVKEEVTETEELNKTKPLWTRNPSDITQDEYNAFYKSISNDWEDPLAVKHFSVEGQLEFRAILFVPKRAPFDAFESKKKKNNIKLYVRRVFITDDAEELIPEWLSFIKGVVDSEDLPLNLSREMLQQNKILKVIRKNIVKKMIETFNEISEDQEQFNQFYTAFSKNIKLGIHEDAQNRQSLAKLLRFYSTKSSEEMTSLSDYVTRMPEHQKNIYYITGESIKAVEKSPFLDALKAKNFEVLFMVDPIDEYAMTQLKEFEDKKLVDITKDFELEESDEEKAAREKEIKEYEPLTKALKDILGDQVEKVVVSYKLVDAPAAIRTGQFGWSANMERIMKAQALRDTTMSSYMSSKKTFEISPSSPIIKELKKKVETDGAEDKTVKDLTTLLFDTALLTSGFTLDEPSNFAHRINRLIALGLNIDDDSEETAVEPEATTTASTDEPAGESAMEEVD
# Sequence of Serine/threonine-protein phosphatase (B9W6M3 whole entry): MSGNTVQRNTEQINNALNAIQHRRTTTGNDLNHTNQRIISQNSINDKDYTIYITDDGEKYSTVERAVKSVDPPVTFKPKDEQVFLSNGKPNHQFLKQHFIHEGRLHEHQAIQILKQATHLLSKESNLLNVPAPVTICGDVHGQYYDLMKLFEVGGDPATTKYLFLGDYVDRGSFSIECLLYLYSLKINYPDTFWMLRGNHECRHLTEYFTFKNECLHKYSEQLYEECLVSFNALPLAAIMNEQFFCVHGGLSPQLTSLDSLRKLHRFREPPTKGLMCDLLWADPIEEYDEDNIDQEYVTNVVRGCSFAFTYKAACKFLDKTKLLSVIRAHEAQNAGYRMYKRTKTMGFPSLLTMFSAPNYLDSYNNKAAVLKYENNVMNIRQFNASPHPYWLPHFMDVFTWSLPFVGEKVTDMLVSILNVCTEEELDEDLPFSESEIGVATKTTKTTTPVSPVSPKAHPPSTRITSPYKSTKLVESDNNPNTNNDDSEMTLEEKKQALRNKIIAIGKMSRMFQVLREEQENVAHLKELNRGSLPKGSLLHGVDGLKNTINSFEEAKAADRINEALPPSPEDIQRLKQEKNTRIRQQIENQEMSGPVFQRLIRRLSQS
# Sequence of Cytochrome P450 2D6 (P10635 whole entry): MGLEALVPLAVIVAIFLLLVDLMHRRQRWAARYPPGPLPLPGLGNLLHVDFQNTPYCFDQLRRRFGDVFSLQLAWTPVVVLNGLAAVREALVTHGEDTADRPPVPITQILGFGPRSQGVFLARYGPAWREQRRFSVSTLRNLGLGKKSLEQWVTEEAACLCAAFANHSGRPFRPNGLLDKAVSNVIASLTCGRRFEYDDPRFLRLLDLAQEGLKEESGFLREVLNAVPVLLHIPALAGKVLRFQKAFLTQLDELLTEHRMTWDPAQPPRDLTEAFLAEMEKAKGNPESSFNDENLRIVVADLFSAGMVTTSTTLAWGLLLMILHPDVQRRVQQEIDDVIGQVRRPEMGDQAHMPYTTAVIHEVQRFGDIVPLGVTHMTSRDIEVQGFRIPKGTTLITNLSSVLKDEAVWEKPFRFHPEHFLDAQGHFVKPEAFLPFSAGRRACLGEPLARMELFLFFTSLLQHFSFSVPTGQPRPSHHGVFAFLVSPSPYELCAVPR
compound,measurement,setting,value
COc1ccc(C(NC(=O)CCc2ccccc2)c2ccc3cccnc3c2O)cc1 (stereo unspecified),IC50,HEK293 [1],2.3 µM (active)
same,IC50,Jurkat,2.52 µM (active)
same,IC50,HEK293 [2],22.5 µM (inactive)
O=c1c2ccccc2nc(/C=C/c2ccncc2)n1-c1ccccc1,IC50,Hexokinase HKDC1,> 80 µM (inactive)
same,IC50,Hexokinase-1,> 80 µM (inactive)
Oc1c(CN2CCN(c3ccccc3)CC2)cc(Br)c2cccnc12,EC50,BJ [3],5.2 µM (active)
same,EC50,[4],14 µM (active)
same,AC50,[5],1.84 µM (active)
same,AC50,[6],1.92 µM (active)
same,EC50,BJ [7],12.7 µM (inconclusive)
same,EC50,[8],1.47 µM (active)
same,AC50,Cytochrome P450 2C19,3.98 µM (inconclusive)
same,EC50,Streptococcus,2.95 µM (active)
same,AC50,INS1,2.42 µM (active)
same,EC50,cells [9],62.6 µM (active)
same,EC50,cells [10],> 350 µM (not active)
same,EC50,[11],> 180 µM (inactive)
same,EC50,[12],21.3 µM (active)
same,IC50,Vero [13],> 12.5 µM (active)
same,EC50,[14],0.656 µM (active)
same,AC50,Cytochrome P450 1A2,1.26 µM (inconclusive)
same,AC50,[15],4.59 µM (active)
same,EC50,BJ [16],8.16 µM (inconclusive)
same,AC50,Cytochrome P450 2D6,3.98 µM (inconclusive)
same,CC50,Vero [17],3.51 µM (active)
same,EC50,[18],> 160 µM (inconclusive)
Cc1cc(N2CCCCC2)nc2ccccc12,IC50,[19],1.23 µM (active)
same,EC50,[20],0.0027 µM (active)
same,IC50,[21],2.63 µM (active)
same,IC50,[22],0.82 µM (active)
same,IC50,[23],2.24 µM (active)
